According to patent publication US12441693B2, “Targeting STAT sumoylation to enhance immune responses” (THE GEORGE WASHINGTON UNIVERSITY, priority 2018, dated 2025):

Tests used:
Assay type in all cases: cell-based, human
[1] = system: Interferon Stimulated Genes (ISGs); experiment: RNASeq of primary CD4 T cells; conditions: IL-2 and HODHBt vs IL-2 and DMSO
Method: RNASeq was performed in primary CD4 T cells treated with HODHBt following the method of Bosque et al., CELL REP. 2017; 18(5):1324-1334, the disclosure of which is hereby incorporated by reference in its entirety.
Total RNA was extracted from cells using Trizol (Invitrogen 15596), polyadenylated RNA was enriched using NEXTflex Poly(A) Beads (Bioo Scientific 512980), and stranded libraries were prepared using a NEXTflex Rapid Directional qRNA-Seq Kit (Bioo Scientific 5130-02D). Sequencing was performed by the Iowa Institute of Human Genetics Genomics Division on an Illumina HiSeq 2500 using 125 base pair (bp) paired-end reads. Raw paired sequences were first trimmed to remove Illumina sequencing adapters and Bioo Scientific randomized 8-mer molecular indexes using Trim Galore! […] For RNA-Seq tracks, reads were then compiled using the genomecov (-split) function of bedtools 2.25.0, normalized by dividing the number of hg19-mapped reads within each sample by the average number of hg19-mapped reads across all nine samples, combined across donors, and visualized on the UCSC Genome Browser. For differential expression analysis, reads were counted over UCSC hg19 genes (26,364 entries) using the featureCounts (-p -B -C -M) function of Subread 1.5.0 (Liao et al., 2014). […]

[2] = system: STAT5, STAT1, STAT3; experiment: Western blot of phosphorylated STATs in CD8 T cells
Method: To address whether SUMOylation controls STAT activation in human CD8 T cells, polyclonally activated CD8 T cells were cultured with IL-2 in the presence or absence of HODHBt and levels of phosphorylated STATs were measured by Western blot. […] Proliferation of CD8 T cells is dependent on the activation and phosphorylation of STAT5.
In general, samples are prepared and loaded on to a gel and during the electrophoresis the negatively charged proteins move toward the positively charged anode. In order to further analyze the proteins, they are transferred onto a membrane in a procedure called blotting. After the transfer, the membrane is blocked in order to prevent unwanted membrane-protein interaction in the following steps. To visualize the protein of interest the membrane is commonly first probed using a primary protein-specific antibody followed by a labeled secondary antibody used for detection. An image is taken of the membrane and the result is analyzed.

[3] = system: K562; experiment: NK cell killing of K562 cells, E:T 1:1, 4 hours
Method: It was therefore hypothesized that inhibiting STAT SUMOylation may enhance the ability of IL-15 stimulated NK cells to clear the HIV latent reservoir. To test the hypothesis, NK cells were treated with DMSO, IL-15-stimulated, treated with HODHBt or IL-15-stimulated and treated with HODHBt. Cells were then tested in their ability to kill the erythroleukemia cell line K562, which lack MHC-I. In an experiment, the NK cells from two donors were co-cultured with K562 at an E:T ratio of 1:1 for 4 hours (FIG. 19A). NK cells were pretreated with IL-15, HODHBt, or a combination of both.

[4] = system: HIV-infected cultured TCM cells; experiment: Killing of HIV-infected cultured TCM cells by expanded autologous NK cells; conditions: autologous NK cells expanded with IL-2 and HODHBt
From the text: As for CD8 T cells, STATS play an important role in the expansion of NK cells. As such, it was hypothesized that inhibiting STAT SUMOylation may enhance the expansion of NK cells. This has important implications for adoptive cell immunotherapies as NK cells are increasingly becoming an attractive alternative to T cell therapies. In order to address whether inhibiting STAT SUMOylation may enhance NK proliferation in vitro, NK cells were isolated from two human HIV-negative donors and expanded using Miltenyi Biotec NK MACS Medium in the presence of 500 IU/ml of IL-2 and in the presence or absence of HODHBt.

O=c1c2ccccc2nnn1O [HODHBt]
expression of Interferon Stimulated Genes (RNASeq) [1]: induction of several Interferon Stimulated Genes | phosphorylation of STAT1 and STAT3 in CD8 T cells ([2]; HODHBt alone): increased the phosphorylation levels of both STAT1 and STAT3 | phosphorylation of STAT5 in CD8 T cells ([2]; after IL-2 treatment): increased the levels of phosphorylation of STAT5 after IL-2 treatment | phosphorylation of STAT1 and STAT3 in CD8 T cells ([2]; with IL-2, vs IL-2): enhanced those induced by IL-2 | killing of K562 by NK cells expanded with compound ([3]; NK cells expanded with IL-2 and HODHBt): retained the ability to kill the target cell line K562 | killing of K562 by pretreated NK cells ([3]; NK cells pretreated with combination of IL-15 and HODHBt, E:T 1:1, 4 hours): drastic increase in the cytolytic capacity of NK cells | killing of HIV-infected cultured TCM cells by NK cells expanded with compound [4]: as well as HIV-infected cultured TCM cells from the same donor
